This note sets out measurements from PubChem BioAssay AID1996.

SMILES strings stand for the structures. Converted amounts (≈) assume the structure as drawn.

The conditions of the data set: buffer; pH 7.4; 200.0 µM.
The compound `C=CCn1c(NCc2ccc(OC)cc2)nc2ccccc21` returned a solubility (kinetic) of 33.7 µg/mL (≈ 115 µM).

For the compound `O=C(CN1CCN(Cc2ccccc2)CC1)N/N=C/c1cccnc1`, the solubility (kinetic) is over 50.6 µg/mL. The result for `COC(=O)c1ccc(Cn2cnc3cnccc32)cc1` reads 29.9 µg/mL (≈ 112 µM); that for `Cc1cc(C)cc(NC(=S)N2CC(C)OC(C)C2)c1` (centres undefined), 35.1 µg/mL (≈ 126 µM). Next, `CCc1ccc(C2CC(=O)N(c3cccc(F)c3)C3=C2C(=O)OC3)cc1` (centres undefined): 9.6 µg/mL (≈ 27.3 µM); `N/C(=N\OC(=O)Nc1ccccc1)c1cccc(C(F)(F)F)c1`: 27.9 µg/mL (≈ 86.3 µM).

`CC(=O)c1ccc(OC(C)C(=O)NC2CCCCC2C)cc1` (centres undefined) displayed a kinetic solubility of over 45.5 µg/mL. `CCCNC(=O)c1ccc(COc2cccc3ccccc23)o1` yielded a solubility (kinetic) of 15.8 µg/mL (≈ 51.1 µM). Next, `COc1cccc(-n2c(-c3ccccc3)c[nH]c2=S)c1`: 7.8 µg/mL (≈ 27.6 µM). Next, `O=C(O)c1ccc(S(=O)(=O)N(Cc2ccccc2)Cc2ccccc2)cc1`: 19.5 µg/mL (≈ 51.1 µM); `COCCN(Cc1ccccc1)C(=O)C1CCN(C(=O)Nc2ccccc2)CC1`: over 59.3 µg/mL; `Cc1cccc(C)c1NC(=O)CNC(=O)c1cccnc1`: over 42.5 µg/mL. The result for `O=C(COC(=O)c1cccnc1Cl)NCc1cccs1` reads 44.1 µg/mL (≈ 142 µM); that for `Cn1c(C(=O)N[C@@H](C(=O)O)c2ccccc2)cc2cc(Cl)ccc21`, over 51.4 µg/mL; that for `Cc1ccc(NC(=O)N(CCC#N)Cc2ccccc2)cc1`, over 44 µg/mL. The compound `N/C(=N\OC(=O)c1ccoc1)c1ccc(Br)cc1` had a kinetic solubility of 9.2 µg/mL (≈ 29.8 µM).

`N#C/C(=C\c1ccc(O)c(O)c1)C(=O)Nc1cccc2ncccc12` showed a kinetic solubility of 20 µg/mL (≈ 60.4 µM). The result for `CC(=O)C1=C(O)C(=O)N(c2ccccn2)C1c1cccc(F)c1` (centres undefined) reads over 46.8 µg/mL. Next, `O=C(Cc1cccs1)Nc1nc(-c2cccnc2)cs1`: 5.3 µg/mL (≈ 17.6 µM).

Regarding `O=C(NCC1CCCO1)c1cc(-c2ccc(F)cc2)no1` (centres undefined), the kinetic solubility is over 43.5 µg/mL.

For `COC(=O)c1cnc(Nc2ccc(Cl)cc2)c([N+](=O)[O-])c1`, the solubility (kinetic) was under 0.2 µg/mL. Turning to `Cc1ccc(S(=O)(=O)NCCNC(=O)CN2CCOCC2)cc1`, the solubility (kinetic) came out at 48.8 µg/mL (≈ 143 µM).

`O=C(CCS(=O)(=O)c1ccccc1)N1CCCc2ccccc21` displayed a solubility (kinetic) of 49.2 µg/mL (≈ 149 µM). The result for `CC1CCN(C(=O)CN2C(=O)c3cccc4cccc(c34)C2=O)CC1` reads 2.1 µg/mL (≈ 6.24 µM); that for `O=C(NCC(=O)N1CCOCC1)c1ccc(Br)cc1`, over 49.1 µg/mL. The result for `CCOC(=O)CN1C(=O)NC2(CCCc3ccccc32)C1=O` (centres undefined) reads over 45.3 µg/mL; that for `COc1ccc(CC(=O)N(Cc2ccccc2)C(C)C)cc1`, 40.7 µg/mL (≈ 137 µM); that for `Cc1c(C(=O)O)cc(C(C)(C)C)n1CCSCCO`, 38.8 µg/mL (≈ 136 µM). The result for `O=Cc1cn(CC(=O)N2CCc3ccccc32)c2ccccc12` reads 0.4 µg/mL (≈ 1.31 µM). Take `O=C1CC(Sc2cccs2)C(=O)N1c1ccccc1` (centres undefined): the solubility (kinetic) is 41.7 µg/mL (≈ 144 µM). Next, `CCCCc1ccccc1NC(=S)NC1CCCC1`: 30.5 µg/mL (≈ 110 µM). Next, `O=C(NCCCCCCNC(=O)c1ccncc1)c1ccncc1`: over 49 µg/mL; `Cc1ccc(SCC(=O)Nc2cc(S(=O)(=O)N3CCCCC3)ccc2C)cc1`: 9.9 µg/mL (≈ 23.7 µM). Compound `COc1cccc(N2C(=O)/C(=C\c3cccs3)NC2=S)c1` displayed a kinetic solubility of 4.1 µg/mL (≈ 13 µM).

Take `Cc1ccc(S(=O)(=O)N2CCCCC2)cc1NS(=O)(=O)c1ccccc1F`: the kinetic solubility was over 61.9 µg/mL. Next, `Cc1ccsc1C(=O)N(C)C1CCS(=O)(=O)C1` (centres undefined): over 41 µg/mL; `COc1ccc(OC)c(N/C(N)=N/c2nc(C)cc(C)n2)c1`: 40.5 µg/mL (≈ 134 µM); `CN(C)S(=O)(=O)c1ccc(NC=O)cc1`: over 34.2 µg/mL. The result for `COc1ccccc1OCCNC(=O)c1ccc(C)o1` reads over 41.3 µg/mL. Next, `CC(=O)Nc1ccc(C(=O)COC(=O)CCN2C(=O)C3CC=CCC3C2=O)cc1` (centres undefined): over 59.8 µg/mL. The compound `Cc1cccc(OCC(=O)Nc2ccccc2F)c1` registered a solubility (kinetic) of 13.4 µg/mL (≈ 51.7 µM). Next, `CN(C)S(=O)(=O)c1cccc(C(=O)OCC(=O)N2CCCC2=O)c1`: over 53.2 µg/mL. The result for `CCc1ccc(OC)c(S(=O)(=O)NCc2cccs2)c1` reads over 46.7 µg/mL. Next, `COc1ccc(OC)c(N(CC(=O)N2CCCC2)S(C)(=O)=O)c1`: over 51.4 µg/mL; `O=c1c(N2CCOCC2)c(N2CCOCC2)c1=O`: over 37.8 µg/mL. Regarding `COc1ccc(N2CCN(c3nccs3)CC2)cc1`, the kinetic solubility is over 41.3 µg/mL. `Cc1ccc(NC(=O)CS(=O)c2ccccc2N)c(C)c1` (centres undefined) came in with a kinetic solubility of over 45.4 µg/mL.

The compound `O=C(NC(=S)NCc1ccccc1)c1cccc(Cl)c1` returned a solubility (kinetic) of under 0.3 µg/mL. Next, `C=Cn1cc[n+](CC(=O)c2cccs2)c1.[Br-]`: over 44.9 µg/mL; `Cl.O=C(NC(=S)N1CCN(c2ccccc2)CC1)c1ccco1`: over 52.8 µg/mL; `O=C(Nc1ccccc1C(=O)Nc1ccccc1)c1cccs1`: 1 µg/mL (≈ 3.1 µM). `CC(=O)N1CCC(C(=O)NCCOc2ccc(C)cc2)CC1` yielded a solubility (kinetic) of over 45.7 µg/mL. The result for `O=C(O)c1cc(Oc2ccc(C(F)(F)F)cc2Cl)ccc1[N+](=O)[O-]` reads over 54.2 µg/mL; that for `O=C(c1cc2cc(F)ccc2[nH]1)N1CCC(Cc2ccccc2)CC1`, 1.3 µg/mL (≈ 3.86 µM); that for `Cc1ccsc1C(=O)OCC(=O)Nc1nnc(-c2ccccc2)o1`, over 51.5 µg/mL. The result for `COC(=O)c1c(S(=O)(=O)N2CCOCC2)c(C)n(C)c1C` reads over 47.5 µg/mL; that for `Cc1onc(-c2ccccc2)c1C(=O)NC(C)c1ccccc1` (centres undefined), 4.9 µg/mL (≈ 16 µM). The result for `O=C(CCCSc1ccc(Cl)cc1)Nc1ccccc1O` reads 8.6 µg/mL (≈ 26.7 µM); that for `CCOC(=O)C(Cc1ccccc1)C(=O)NCc1ccccc1` (centres undefined), over 46.7 µg/mL; that for `C1CN(c2nc3nonc3nc2N2CCSCC2)CCO1`, 41.1 µg/mL (≈ 133 µM). With `CNc1nc(C)c([N+](=O)[O-])c(Nc2ccc(OC)cc2)n1`, the kinetic solubility was found to be 0.5 µg/mL (≈ 1.73 µM). The result for `COCc1cc(=O)[nH]c(Cc2c(Cl)cccc2Cl)n1` reads 1.7 µg/mL (≈ 5.68 µM). Next, `COc1cccc(NC(=O)c2cncs2)c1`: 32.9 µg/mL (≈ 140 µM). The result for `Cc1ccc(C(=O)Cn2cc([N+](=O)[O-])nc2C)cc1` reads 11.7 µg/mL (≈ 45.1 µM). For `COc1ccc(CN(C)CC(=O)Nc2cccc(S(=O)(=O)N3CCCC3)c2)cc1F`, the kinetic solubility was determined as 44 µg/mL (≈ 101 µM). Compound `CC1(C)CC(=O)C=C(Nc2ccc(Cl)c(Br)c2)C1` returned a solubility (kinetic) of 8.5 µg/mL (≈ 25.9 µM). The result for `O=[N+]([O-])c1c(NCCO)cc(N2CCCCCC2)c2nonc12` reads 40.5 µg/mL (≈ 126 µM); that for `N/C(COc1ccc(Cl)cc1Cl)=N\O`, 28.8 µg/mL (≈ 123 µM); that for `Br.Fc1ccccc1CNCc1ccc2c(c1)OCO2`, over 51 µg/mL. As for `COCCCNS(=O)(=O)c1cc2c3c(c1)C(C)C(=O)N3CCC2` (centres undefined), the solubility (kinetic) is over 50.8 µg/mL. The result for `Cc1ccc(N2C(=O)C3C4C=CC(CC4)C3C2=O)cc1[N+](=O)[O-]` (centres undefined) reads 23.4 µg/mL (≈ 74.9 µM); that for `CN(Cc1cccc(F)c1)C(=O)c1ccc(S(=O)(=O)N2CCCCCC2)cc1`, 25.4 µg/mL (≈ 62.8 µM). Next, `CC(NC(=O)CCNC(=O)c1ccco1)c1ccc(F)cc1` (centres undefined): over 45.6 µg/mL. The result for `O=C(O)CN1C(=O)CSC1=S` reads over 28.7 µg/mL; that for `O=C(NC(=S)Nc1cc([N+](=O)[O-])ccc1O)C1CC1`, over 42.2 µg/mL; that for `O=C(NC1CCS(=O)(=O)C1)c1cccs1` (centres undefined), over 36.8 µg/mL.

In the case of `COc1ccc(NC(=O)COC(=O)c2cccn2C)cc1S(=O)(=O)N1CCCCC1`, the solubility (kinetic) came out at 32.6 µg/mL (≈ 74.9 µM). The result for `Cn1c(N)c(C(=O)COC(=O)c2ccccc2C(=O)c2ccc(Cl)cc2)c(=O)n(C)c1=O` reads 6.3 µg/mL (≈ 13.8 µM). The result for `C/C(=N/OC(=O)C1CC1c1ccccc1)c1ccccc1` (centres undefined) reads 3.6 µg/mL (≈ 12.9 µM); that for `Cc1cccc(C)c1NC(=O)c1c[nH]c2ccccc12`, over 39.6 µg/mL; that for `Cc1ccc(CNC(=O)CN2CCN(c3ccc(F)cc3)CC2)cc1`, over 51.2 µg/mL. The result for `COc1cccc(Cn2c(=O)oc3ccccc32)c1` reads 25 µg/mL (≈ 97.9 µM); that for `CC(NC(=O)C(C)(C)C)C(c1cccs1)N1CCOCC1` (centres undefined), over 46.6 µg/mL.

`CCOc1ccc(C(=O)CCC(=O)NC(C)C(=O)OC)cc1` (centres undefined) yielded a solubility (kinetic) of over 46.1 µg/mL. Next, `COC(=O)C1CCN(Cc2cc(=O)oc3cc(C)c(Cl)cc23)CC1`: 4.7 µg/mL (≈ 13.4 µM). The result for `Cc1cc(C(=O)COc2cc(F)ccc2[N+](=O)[O-])c(C)n1CC1CCCO1` (centres undefined) reads 34.4 µg/mL (≈ 91.4 µM); that for `CNc1nc(N)c(C(=O)Nc2cc(C)on2)s1`, 35.4 µg/mL (≈ 140 µM); that for `CC1CCN(C(=O)CN2C(=O)COc3ccc(Cl)cc32)CC1`, over 48.4 µg/mL.

`Cc1cccc(N2C(=O)CSC23CCCCC3)c1` gave a kinetic solubility of 20.3 µg/mL (≈ 77.7 µM). Next, `COc1ccccc1C(=O)NC(=O)Nc1c(C)cc(C)cc1C`: 0.7 µg/mL (≈ 2.24 µM); `C=CCCCCCCCCC(=O)Nc1ncccn1`: 6.8 µg/mL (≈ 26 µM). The result for `COc1ccc2nc(NC(=O)c3cccs3)sc2c1` reads under 0.3 µg/mL. The result for `CC(NC(=O)c1ccc(F)cc1)C1CC2CCC1C2` (centres undefined) reads 6.9 µg/mL (≈ 26.4 µM); that for `COc1cc(C)nc(NS(=O)(=O)c2ccccc2Cl)n1`, 38.9 µg/mL (≈ 124 µM); that for `COc1ccc(OC2CCN(C(=O)Nc3ccc(C)cc3)CC2)cc1`, 0.4 µg/mL (≈ 1.18 µM). `COC(=O)c1ccc(NC(=O)c2cccnc2)cc1` returned a solubility (kinetic) of over 38.4 µg/mL. Next, `O=C(NCc1ccco1)/C(=C/c1ccco1)NC(=O)c1ccccc1`: 41.5 µg/mL (≈ 123 µM); `COc1ccccc1NC(=O)Cc1cccc2ccccc12`: 2.1 µg/mL (≈ 7.21 µM). With `Nc1ccccc1OCCOc1ccccc1N`, the solubility (kinetic) is over 36.6 µg/mL. The result for `Cc1ccc([N+](=O)[O-])cc1NC(=O)C1CCCC1` reads 9.4 µg/mL (≈ 37.9 µM); that for `O=C(Cn1nc(Cl)nc1Cl)c1ccccc1`, over 38.4 µg/mL. `O=C(O)c1ccc(COc2ccc([N+](=O)[O-])cc2)o1` displayed a kinetic solubility of over 39.5 µg/mL. Next, `CCOC(=O)COc1cc2oc(=O)cc(C)c2cc1[N+](=O)[O-]`: 3 µg/mL (≈ 9.76 µM); `O=C1CC(c2ccccc2)CC(O)=C1C=NCc1ccncc1` (centres undefined): over 46 µg/mL.

The term kinetic solubility denotes solubility judged after dilution from a stock solution rather than from solid.
